Results taken from patent publication US8367682B2, “Pyrimidine derivatives and their use as pesticides” (Novartis AG, priority 2006, dated 2013).

Experiments:
Ctenocephalides felis = assay: Activity in vitro against Ctenocephalides felis (cat flea), HTS, artificial blood feeding; details: in this test; adult fleas; concentration not given
Experimental: 3. Activity in Vitro Against Ctenocephalides felis (Cat Flea)—HTS
A mixed adult population of fleas is placed in a suitably formatted 96-well plate allowing fleas to access and feed on treated blood via an artificial feeding system. Each compound is tested by serial dilution in order to determine its MED. Fleas are fed on treated blood for 24 hours, after which the compound's effect is recorded. Insecticidal activity is determined on the basis of the number of dead fleas recovered from the feeding system.

[1] = system: Rhipicephalus sanguineus nymphs; assay: In-vivo test against Rhipicephalus sanguineus nymphs on Mongolian gerbils; details: for % reduction of number of ticks: spray (or spot-on) on gerbils, vs placebo group, Abbot's formula
Experimental: 4. In-Vivo Test Against Rhipicephalus sanquineus Nymphs on Mongolian Gerbils (Meriones unguiculatus)
On day 0, gerbils are treated with the test compound at a given dose by spray (or spot-on) application. On day +1 (+2), the animals are infested with nymphs of R. sanguineus. Ticks are left on the animals until full repletion. Seven days after infestation nymphs dropped off fully engorged are collected and counted. They are kept until molting to also evaluate growth regulating activity of the test compound. Efficacy in killing (and growth regulating) is expressed as a tick number (and molted tick number) reduction in comparison with a placebo treated group, using the Abbot's formula. A tick number reduction of more than 60%, in particular more than 70%, is regarded as a minimum prerequisite for a commercial development of a compound. In addition, said killing efficacy should be put into practice with the minimal dose for safety and environmental reasons.

Rhipicephalus sanguineus = assay: Activity in vitro against Rhipicephalus sanguineus (dog ticks), HTS; details: in this test; adult ticks; concentration not given
Experimental: 2. Activity in Vitro Against Rhipicephalus sanguineus (Dog Ticks)—HTS
A clean adult tick population is used to seed a suitably formatted 96-well plate containing the test substances to be evaluated for antiparasitic activity. Each compound is tested by serial dilution in order to determine its MED. Ticks are left in contact with the test compound for 10 minutes and are then incubated at 28° C. and 80% relative humidity (RH) for 7 days, during which the test compound's effect is monitored. Acaricidal activity is confirmed if and when adult ticks are dead.

SMILES | % reduction of number of ticks ([1]; dose 3.2 mg/kg) [%] | % reduction of number of ticks ([1]; dose 10 mg/kg) [%] | other results
Nc1c(Oc2ccc(F)c(C(F)(F)F)c2)nc(-c2ccccc2)nc1Oc1ccc(F)c(C(F)(F)F)c1 [2-phenyl-4,6-bis-(4-fluoro-3-[trifluoromethyl]phenoxy)-5-amino-pyrimidine] |  |  | insecticidal efficacy (Ctenocephalides felis): does not show any significant insecticidal efficacy; killing efficacy ([1]; at these low concentrations (doses of the table, 3.2-10 mg/kg)): No significant killing efficacy; acaricidal efficacy (Rhipicephalus sanguineus): does not show any significant acaricidal efficacy
COc1cccc(-c2nc(Oc3ccc(F)c(C(F)(F)F)c3)c(N)c(Oc3ccc(F)c(C(F)(F)F)c3)n2)c1 [Compound 1.7] | 91 |  | 
Cc1cccc(-c2nc(Oc3ccc(F)c(C(F)(F)F)c3)c(N)c(Oc3ccc(F)c(C(F)(F)F)c3)n2)c1 [Compound 1.9] |  | 74 | 
CC(C)c1cccc(-c2nc(Oc3ccc(F)c(C(F)(F)F)c3)c(N)c(Oc3ccc(F)c(C(F)(F)F)c3)n2)c1 [Compound 1.10] |  | 81 | 
CC(O)c1cccc(-c2nc(Oc3ccc(F)c(C(F)(F)F)c3)c(N)c(Oc3ccc(F)c(C(F)(F)F)c3)n2)c1 (stereo not shown) [Compound 1.18] |  | 85 | 
Cc1cc(-c2nc(Oc3ccc(F)c(C(F)(F)F)c3)c(N)c(Oc3ccc(F)c(C(F)(F)F)c3)n2)ccc1F [Compound 1.23] |  | 99 | 
COCc1cccc(-c2nc(Oc3ccc(F)c(C(F)(F)F)c3)c(N)c(Oc3ccc(F)c(C(F)(F)F)c3)n2)c1 [Compound 1.27] | 78 |  | 
Nc1c(Oc2ccc(F)c(C(F)(F)F)c2)nc(-c2cccc(N3CCOCC3)c2)nc1Oc1ccc(F)c(C(F)(F)F)c1 [Compound 1.30] | 79 |  | 
CN(C)c1cccc(-c2nc(Oc3ccc(F)c(C(F)(F)F)c3)c(N)c(Oc3ccc(F)c(C(F)(F)F)c3)n2)c1 [Compound 1.34, 2-(3-Dimethylamino-phenyl)-4,6-bis-(4-fluoro-3-trifluoromethyl-phenoxy)-pyrimidin-5-ylamine] | 85 |  | 
Cn1ccc2ccc(-c3nc(Oc4ccc(F)c(C(F)(F)F)c4)c(N)c(Oc4ccc(F)c(C(F)(F)F)c4)n3)cc21 [Compound 2.2] | 89 |  | 
Nc1c(Oc2ccc(F)c(C(F)(F)F)c2)nc(-c2ccc3cc[nH]c3c2)nc1Oc1ccc(F)c(C(F)(F)F)c1 [Compound 2.3] | 81 |  | 
